Eleven compounds from US11655235B2, “Pyrrolidine and piperidine compounds” (YUHAN CORPORATION, priority 2019, dated 2023) can be followed below.

Where two headings read alike, the source gives them in different places. Bounds are passed on as bounds.

Assay type in all cases: biochemical
The target in one experiment is T1, recombinant human PREP (Homo sapiens, UniProt P48147).
T1 construct: purchased R&D System
T1 sequence (P48147 1-710): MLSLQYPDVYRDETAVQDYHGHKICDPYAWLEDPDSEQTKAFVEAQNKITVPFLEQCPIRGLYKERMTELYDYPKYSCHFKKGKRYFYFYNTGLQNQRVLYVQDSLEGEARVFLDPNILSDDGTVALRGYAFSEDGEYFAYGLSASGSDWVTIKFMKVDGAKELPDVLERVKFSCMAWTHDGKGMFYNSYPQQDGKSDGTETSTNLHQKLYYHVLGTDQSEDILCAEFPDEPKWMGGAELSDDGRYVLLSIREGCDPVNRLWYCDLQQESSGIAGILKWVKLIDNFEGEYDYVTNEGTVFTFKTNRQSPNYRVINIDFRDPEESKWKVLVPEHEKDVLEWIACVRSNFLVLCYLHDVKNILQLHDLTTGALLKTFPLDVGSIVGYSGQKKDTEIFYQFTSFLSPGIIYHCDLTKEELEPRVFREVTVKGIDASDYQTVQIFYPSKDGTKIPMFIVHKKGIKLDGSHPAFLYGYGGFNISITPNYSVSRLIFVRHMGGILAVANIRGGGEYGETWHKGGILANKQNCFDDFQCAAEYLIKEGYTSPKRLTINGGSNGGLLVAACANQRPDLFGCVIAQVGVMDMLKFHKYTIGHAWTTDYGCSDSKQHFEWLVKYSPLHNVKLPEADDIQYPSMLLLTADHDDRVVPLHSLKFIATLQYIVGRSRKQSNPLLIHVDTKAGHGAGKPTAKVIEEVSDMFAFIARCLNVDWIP
As to the kind of experiment: PREP inhibition, fluorogenic substrate Z-Gly-Pro-AMC. Conditions: Inhibitory Activity (IC50, nM) PREP. The method, boiled down: (§1)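 Inhibitors are titrated in an 8-point series into the enzyme's assay buffer (DMSO no more than 0.5%). Substrate cleavage at 25 °C is followed by fluorescence, excitation 380 nm and emission 460 nm. IC50 values come from a four-variable logistic model.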

The next experiment concerns the target T2, recombinant human DPP9 (Homo sapiens, UniProt Q86TI2).
T2 construct: purchased R&D Systems
The experiment can be described thus: DPP9 inhibition, fluorogenic substrate H-Gly-Pro-AMC. In outline: as §1

The next experiment deals with T3, recombinant human DPP7 (Homo sapiens, UniProt Q9UHL4).
T3 construct: purchased R&D Systems
As to the kind of experiment: DPP7 inhibition, fluorogenic substrate Lys-Pro-AMC. In outline: as §1

In another experiment the target is T4, Recombinant human FAP (Homo sapiens, UniProt Q12884).
T4 construct: purchased R&D systems
T4 sequence (Q12884 1-760): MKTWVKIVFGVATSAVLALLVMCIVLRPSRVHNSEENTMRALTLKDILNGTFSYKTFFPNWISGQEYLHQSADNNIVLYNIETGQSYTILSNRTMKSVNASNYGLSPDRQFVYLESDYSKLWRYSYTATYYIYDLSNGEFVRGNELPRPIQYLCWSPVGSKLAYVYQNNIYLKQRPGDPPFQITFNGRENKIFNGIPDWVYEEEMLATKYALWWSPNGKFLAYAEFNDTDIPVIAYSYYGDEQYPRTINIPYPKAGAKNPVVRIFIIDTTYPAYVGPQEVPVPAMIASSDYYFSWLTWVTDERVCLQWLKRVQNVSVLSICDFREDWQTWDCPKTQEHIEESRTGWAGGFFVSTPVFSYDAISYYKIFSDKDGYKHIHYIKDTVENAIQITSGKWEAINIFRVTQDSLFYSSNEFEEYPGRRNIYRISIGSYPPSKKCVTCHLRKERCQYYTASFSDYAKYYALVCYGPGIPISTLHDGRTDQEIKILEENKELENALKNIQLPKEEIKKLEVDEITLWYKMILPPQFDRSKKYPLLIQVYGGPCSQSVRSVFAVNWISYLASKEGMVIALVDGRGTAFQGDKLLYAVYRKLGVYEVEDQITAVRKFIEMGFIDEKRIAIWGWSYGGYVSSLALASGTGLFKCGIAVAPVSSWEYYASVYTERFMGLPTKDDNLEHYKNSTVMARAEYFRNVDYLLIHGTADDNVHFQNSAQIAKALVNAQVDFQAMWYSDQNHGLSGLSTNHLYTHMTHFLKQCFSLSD
As to the kind of experiment: FAP inhibition, fluorogenic substrate Z-Gly-Pro-AMC. The method, boiled down:
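Eight-point compound dilutions (≤0.1% DMSO) were incubated at 25° C with 10 ng recombinant human FAP in Tris pH 7.5/1 M NaCl/BSA buffer and Z-Gly-Pro-AMC. Inhibition was taken as % drop in fluorescence rate (380/460 nm) against uninhibited control; IC50 came from a four-parameter logistic fit.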

The target of the next experiment is T5, recombinant human DPP8 (Homo sapiens, UniProt Q6V1X1).
T5 construct: purchased PBS Bioscience
The experiment can be described thus: DPP8 inhibition, fluorogenic substrate Z-Ala-Pro-AMC. As for the experimental part:
The compounds according to the present technology were evaluated in terms of the inhibitory effect on the activity of dipeptidyl peptidases including FAP by using a substrate producing fluorescent substances upon enzymatic decomposition. The test was conducted at 25° C. to get a final reaction volume of 100 μL in a 96 black well plate. […] Briefly, the test compounds were dissolved in dimethyl sulfoxide (DMSO) at a concentration of 20 mM and then subjected to serial dilution, thereby creating an 8 point curve. As for the control group, a 6 point curve created by serial dilution of Talabostat in the same buffer solution was used. Fluorescence intensity was measured using a microplate reader (Flexstation3, Molecular Devices) under the wavelength condition exciting at 380 nm and reading the emission at 460 nm. The inhibitory effect of the test compounds was measured as a decrease (%) in the signal rate as compared to the control group without any inhibitor. Data was fixed to a logistic model with four variables and IC50 value was calculated using GraphPad Prism program. As for recombinant human DPP4 (R&D Systems), 25 mM tris (pH 8.0) buffer as a buffer solution and H-Gly-Pro-AMC (Bachem) as a substrate were used. As for recombinant human DPP7 (R&D Systems), 25 mM MES (pH 6.0) buffer as a buffer solution and Lys-Pro-AMC (Bachem) as a substrate were used. As for recombinant human DPP8 (PBS Bioscience), as a buffer solution, a 10 mM tris (pH 7.4) buffer comprising 10 mM of magnesium chloride and 0.05% of Tween 20, and Z-Ala-Pro-AMC (BPS Bioscience) as a substrate were used. As for recombinant human DPP9 (R&D Systems), a 25 mM tris (pH 8.0) buffer as a buffer solution and H-Gly-Pro-AMC (Bachem) as a substrate were used. As for recombinant human PREP (R&D System), as a buffer solution, a 25 mM tris (pH 7.5) buffer comprising 250 mM sodium chloride and 2.5 mM DTT (Dithiolthreitol), and Z-Gly-Pro-AMC (Bachem) as a substrate were used. The evaluation was made by using 10 ng of DPP4, PDD7, and PREP, 20 ng of DPP8, and 50 ng of DPP9 based on the final reaction. In the evaluation of DPP4, the test compounds were subjected to serial dilution in a buffer under the condition containing up to 0.1% of DMSO. In the evaluation of DPP7, DPP8, DPP9, and PREP, the test compounds were subjected to serial dilution in each buffer under the condition containing up to 0.5% of DMSO.

The mark [1] stands for this setting: 25° C., Z-Gly-Pro-AMC substrate.
The mark [2] stands for this setting: 25° C., H-Gly-Pro-AMC substrate.
The mark [3] stands for this setting: 25° C., Z-Ala-Pro-AMC substrate.
Setting [4] is: recombinant human FAP, substrate Z-Gly-Pro-AMC.

T2 sequence (Q86TI2 whole entry): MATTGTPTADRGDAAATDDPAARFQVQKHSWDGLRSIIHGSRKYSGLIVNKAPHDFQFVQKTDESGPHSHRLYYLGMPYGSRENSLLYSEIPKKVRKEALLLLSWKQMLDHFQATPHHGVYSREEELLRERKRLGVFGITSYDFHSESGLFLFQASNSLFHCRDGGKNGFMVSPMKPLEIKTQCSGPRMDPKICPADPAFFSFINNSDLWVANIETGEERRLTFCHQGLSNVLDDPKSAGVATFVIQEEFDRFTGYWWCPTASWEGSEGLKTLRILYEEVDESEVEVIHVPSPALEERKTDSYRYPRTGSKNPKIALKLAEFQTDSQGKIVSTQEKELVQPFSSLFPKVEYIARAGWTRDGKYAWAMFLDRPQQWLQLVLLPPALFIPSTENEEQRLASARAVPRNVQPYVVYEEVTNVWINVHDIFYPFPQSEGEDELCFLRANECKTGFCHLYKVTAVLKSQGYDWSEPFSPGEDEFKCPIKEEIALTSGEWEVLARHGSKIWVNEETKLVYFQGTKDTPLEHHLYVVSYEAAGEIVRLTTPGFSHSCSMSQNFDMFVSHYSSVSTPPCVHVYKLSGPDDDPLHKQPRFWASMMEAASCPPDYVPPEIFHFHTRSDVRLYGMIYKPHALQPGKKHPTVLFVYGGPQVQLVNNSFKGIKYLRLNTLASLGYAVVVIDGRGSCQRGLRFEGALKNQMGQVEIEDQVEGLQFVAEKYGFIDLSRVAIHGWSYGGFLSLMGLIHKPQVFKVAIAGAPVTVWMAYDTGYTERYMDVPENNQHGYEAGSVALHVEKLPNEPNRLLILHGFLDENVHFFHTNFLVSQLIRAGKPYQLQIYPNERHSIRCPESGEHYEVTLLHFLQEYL
T5 sequence (Q6V1X1 whole entry): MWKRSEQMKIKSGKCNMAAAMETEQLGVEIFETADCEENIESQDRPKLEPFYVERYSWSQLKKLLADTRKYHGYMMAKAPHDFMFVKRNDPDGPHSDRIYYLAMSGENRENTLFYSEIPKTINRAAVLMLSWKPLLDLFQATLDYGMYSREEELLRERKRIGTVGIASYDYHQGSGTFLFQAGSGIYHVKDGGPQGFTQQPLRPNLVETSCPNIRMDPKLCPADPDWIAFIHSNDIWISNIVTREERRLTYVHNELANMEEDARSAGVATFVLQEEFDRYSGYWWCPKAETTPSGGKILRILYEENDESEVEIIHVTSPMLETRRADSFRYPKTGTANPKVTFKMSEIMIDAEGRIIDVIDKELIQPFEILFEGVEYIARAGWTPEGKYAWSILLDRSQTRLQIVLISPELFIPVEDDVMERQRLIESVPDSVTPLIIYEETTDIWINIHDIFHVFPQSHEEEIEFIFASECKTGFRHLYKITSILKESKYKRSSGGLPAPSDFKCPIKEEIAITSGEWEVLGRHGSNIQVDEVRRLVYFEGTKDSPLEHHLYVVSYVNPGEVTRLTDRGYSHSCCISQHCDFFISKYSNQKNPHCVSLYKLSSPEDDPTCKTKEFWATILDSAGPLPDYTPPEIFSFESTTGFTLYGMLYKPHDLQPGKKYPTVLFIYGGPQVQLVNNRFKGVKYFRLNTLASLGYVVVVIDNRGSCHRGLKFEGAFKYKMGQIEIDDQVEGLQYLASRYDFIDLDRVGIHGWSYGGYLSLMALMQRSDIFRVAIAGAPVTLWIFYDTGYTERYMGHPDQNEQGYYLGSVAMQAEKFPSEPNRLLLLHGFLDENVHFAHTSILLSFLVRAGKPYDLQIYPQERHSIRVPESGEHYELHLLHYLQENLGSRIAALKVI

Consider `CN(c1cnc2ccc(F)cc2c1)[C@H]1CCN(CC(=O)N2CCC[C@H]2C#N)C1` [Example 151, (S)-1-(2-((S)-3-((6-fluoroquinolin-3-yl)(methyl)amino)pyrrolidin-1-yl)acetyl)pyrrolidine-2-carbonitrile], for which the 50% inhibitory concentration (IC50) at recombinant human PREP (setting [1]) is 3090 nM; at recombinant human DPP9 (setting [2]), 23.9 µM; at recombinant human DPP7, 2.55 µM; on Recombinant human FAP (setting [1]), 0.0016 µM; at recombinant human DPP8 (setting [3]) it was 12.3 µM.
The corresponding values for `COc1ccc2ncc(N(C)[C@H]3CCN(CC(=O)N4CCC[C@H]4C#N)C3)cc2c1` [Example 152, (S)-1-(2-((S)-3-((6-methoxyquinolin-3-yl)(methyl)amino)pyrrolidin-1-yl)acetyl)pyrrolidine-2-carbonitrile] are 4130 nM, 29 µM, 1.66 µM, 0.0025 µM and no less than 100 µM.
For the compound `N#C[C@@H]1C[C@H](F)CN1C(=O)CN1CC[C@@H](Nc2cnc3ccccc3c2)C1` [Example 165, (2S,4S)-4-fluoro-1-[2-[(3R)-3-(3-quinolylamino)pyrrolidin-1-yl]acetyl]pyrrolidine-2-carbonitrile], the IC50 on recombinant human PREP (recombinant human PREP) is 3970 nM; on recombinant human DPP9 (recombinant human DPP9), 7.55 µM; at recombinant human DPP7 (recombinant human DPP7), 1.15 µM; on Recombinant human FAP (setting [4]) it was 0.0023 µM; at recombinant human DPP8 (recombinant human DPP8) it was no less than 100 µM.
As for `Cc1ccc2ncc(N(C)[C@H]3CCN(CC(=O)N4CCC[C@H]4C#N)C3)cc2c1` [Example 150, (2S)-1-[2-[(3S)-3-[methyl-(6-methyl-3-quinolyl)amino]pyrrolidin-1-yl]acetyl]pyrrolidine-2-carbonitrile], the 50% inhibitory concentration (IC50) at recombinant human PREP (setting [1]) is 2640 nM; on recombinant human DPP9 (setting [2]) it was 39.6 µM; on recombinant human DPP7, 1.83 µM; on Recombinant human FAP (setting [1]), 0.0011 µM; on recombinant human DPP8 (setting [3]), no less than 100 µM.
The corresponding values for `CN(c1ccc2ncccc2c1)[C@@H]1CCN(CC(=O)N2CCC[C@H]2C#N)C1` [Example 140, (2S)-1-[2-[(3R)-3-[methyl(6-quinolyl)amino]pyrrolidin-1-yl]acetyl]pyrrolidine-2-carbonitrile] are 4260 nM, 32.6 µM, 1.4 µM, 0.0157 µM and no less than 100 µM.
In the same order, the values of `CN(c1ccc2cccnc2c1)[C@H]1CCN(CC(=O)N2CCC[C@H]2C#N)C1` [Example 146, (2S)-1-[2-[(3S)-3-[methyl(7-quinolyl)amino]pyrrolidin-1-yl]acetyl]pyrrolidine-2-carbonitrile] are 4590 nM, no less than 100 µM, 0.916 µM, 0.0066 µM and no less than 100 µM.
For the compound `CN(c1cccc2ncccc12)[C@@H]1CCN(CC(=O)N2CCC[C@H]2C#N)C1` [Example 139, (2S)-1-[2-[(3R)-3-[methyl(5-quinolyl)amino]pyrrolidin-1-yl]acetyl]pyrrolidine-2-carbonitrile], the half-maximal inhibitory concentration (IC50) is 5020 nM on recombinant human PREP (setting [1]); 89 µM at recombinant human DPP9 (setting [2]); 13 µM on recombinant human DPP7; 0.0167 µM at Recombinant human FAP (setting [1]); no less than 100 µM on recombinant human DPP8 (setting [3]).
In the same order, the values of `CN(c1ccc2ncccc2c1)[C@H]1CCN(CC(=O)N2CCC[C@H]2C#N)C1` [Example 145, (2S)-1-[2-[(3S)-3-[methyl(6-quinolyl)amino]pyrrolidin-1-yl]acetyl]pyrrolidine-2-carbonitrile] are 2690 nM, 16.8 µM, 2.03 µM, 0.0027 µM and 19.1 µM.
In the same order, the values of `CN(c1cccc2ncccc12)[C@H]1CCN(CC(=O)N2CCC[C@H]2C#N)C1` [Example 144, (2S)-1-[2-[(3S)-3-[methyl(5-quinolyl)amino]pyrrolidin-1-yl]acetyl]pyrrolidine-2-carbonitrile] are 3360 nM, 23.8 µM, 19.3 µM, 0.006 µM and 85 µM.
The corresponding values for `Cc1c(N(C)[C@H]2CCN(CC(=O)N3CCC[C@H]3C#N)C2)cnc2ccccc12` [Example 149, (2S)-1-[2-[(3S)-3-[methyl-(4-methyl-3-quinolyl)amino]pyrrolidin-1-yl]acetyl]pyrrolidine-2-carbonitrile] are 1620 nM, 49.1 µM, 3.97 µM, 0.0099 µM and no less than 100 µM.
Regarding `N#C[C@@H]1C[C@H](F)CN1C(=O)CN1CCC(Nc2cncc3c(Cl)cccc23)CC1` [Example 361, (2S,4S)-1-[2-[4-[(8-chloro-4-isoquinolyl)amino]-1-piperidyl]acetyl]-4-fluoro-pyrrolidine-2-carbonitrile], the IC50 at recombinant human PREP (recombinant human PREP) was 409 nM; at recombinant human DPP9 (recombinant human DPP9) it was 4.58 µM; on recombinant human DPP7 (recombinant human DPP7) it was 0.314 µM; at Recombinant human FAP (setting [4]), 0.0027 µM; on recombinant human DPP8 (recombinant human DPP8), no less than 100 µM.
